Test results as given in patent US12516286B2, “Method for producing dopaminergic neuron progenitor cell” (KYOTO UNIVERSITY, priority 2016, dated 2026).

What was measured:
QHJ-I01 human iPS cell = test: Corin-positive ratio by flow cytometry with anti-Corin antibody on Day 12 after preconditioning of iPS cells in medium for maintaining undifferentiated state; assay type: cell-based; settings: for Corin-positive ratio as compared with the control: summary of Table 1
Description: QHJ-I01, which is a human iPS cell, has been produced by introducing of Oct3/4, Sox2, KIf4, L-MYC, LIN28, and a dominant-negative form of p53 (Okita, K., et al., Stem Cells, 31, 458-66 (2013); WO2013/176233) into human PBMC by an episomal vector. The cells were received from Professor Yamanaka of Kyoto University, et al.
The iPS cells were cultured according to the method described by Miyazaki T, et al., Nat Commun. 3: 1236, 2012. Specifically, maintenance culture was performed in a medium for maintaining undifferentiated state containing FGF2 (bFGF) on a 6-well plate coated with Laminin-511 E8.
24 hours before the start of differentiation induction by exchange with a differentiation medium, the medium was exchanged with StemFit AK03N (Ajinomoto Healthy Supply Co., Inc.), which was a medium for maintaining undifferentiated state containing SAG (Enzo Life Sciences, Inc., 300 nM), an SHH signal stimulant, to obtain a cell population comprising iPS cells.
The cell population comprising iPS cells after culturing for 24 hours in the presence of SAG as described above was dissociated using TrypLE CTS (Life Technologies), and the cells were inoculated on a 6-well plate coated with Laminin-511 E8 (iMatrix-511, Nippi, Inc.) prepared separately, in an amount of 5×10^6 cells per well. The medium was replaced with a differentiation medium [a basal medium A [GMEM (Invitrogen) supplemented with 8% KSR (Invitrogen), 1 mM Sodium pyruvate (Invitrogen), 0.1 mM MEM nonessential amino acid (Invitrogen), and 0.1 mM 2-Mercaptoethanol (WAKO)] containing 10 μM Y-27632 (WAKO), 0.1 μM LDN 193189 (Stemgent, Inc.), and 0.5 μM A83-01 (WAKO)]. On the next day (Day 1), the medium was replaced with Basal Medium A supplemented with 0.1 μM LDN193189, 0.5 μM A83-01, 2 μM Purmorphamine (WAKO), and 100 ng/mL FGF8 (WAKO). Two days later (Day 3), the medium was replaced with Basal Medium A supplemented with 0.1 μM LDN193189, 0.5 μM A83-01, 2 μM Purmorphamine, 100 ng/mL FGF8, and 3 μM CHIR99021 (WAKO). Four days later (Day 7), the medium was replaced with Basal Medium A supplemented with 0.1 μM LDN193189 and 3 μM CHIR99021. During the above period, the medium was replaced once a day. A flow cytometry analysis using an anti-Corin antibody was performed on the 12th day of the start of differentiation induction (Day 12) (FIG. 1).
An anti-Corin antibody was prepared by the following method. First, from the Corin gene of Macaca fascicularis, a gene sequence encoding a part of the extracellular domain (79th-453rd amino acids) was introduced into 293E cells, and the cells were then allowed to express the extracellular-domain fragment of Corin protein, followed by collecting the protein. Mice were immunized with the recovered protein, and lymphocytes were then extracted and fused with myeloma cells. From the cell population after the fusion, a clone having reactivity with Corin was selected. The culture supernatant of the clone was used after attaching a fluorescent label as the anti-Corin monoclonal antibody.
Five days after the culture in Basal Medium A supplemented with 0.1 μM of LDN193189 and 3 μM CHIR99021, namely on the 12th day of the start of differentiation induction (Day 12), the cells were dissociated using TrypLE CTS, and suspended in Ca^2+Mg^2+-free HBSS (Invitrogen) supplemented with 2% FBS, 10 μM Y-27632 (WAKO), 20 mM D-glucose, and 50 μg/mL penicillin/streptomycin. The anti-Corin antibody was added to the suspension, and the resulting mixture was incubated at 4° C. for 20 minutes, the cells were sorted using FACS (BD) to collect Corin-positive cells, and the cell number was counted.
Similar to Example 1, experiments in which the concentration of SAG added was changed, and experiments in which A83-01 or LDN 193189 was added at the same time with SAG, were conducted, and the Corin-positive ratio were measured.

LPF 11 human iPS cell = test: Corin-positive ratio on Day 12, iPS cells generated by another method; assay type: cell-based; settings: SAG 300 nM preconditioning vs absence of SAG, FIG. 4
Excerpt: LPF 11, a human iPS cell, has been established by introducing Oct3/4, Sox2, KIf4, and L-MYC into human PBMC by a Sendai virus vector (Cytotune 2.0 L, produced by ID Pharma Co., Ltd.), and culturing the same by the method according to the protocol published by Kyoto University (Establishment, maintenance culture of human iPS cells; CiRA Ff-iPSC_protocol_JP_v140310, //www.cira.kyoto-u.ac.jp/j/research/protocol.html) using StemFit medium (produced by Ajinomoto Healthy Supply Co., Inc. Inc.), and Laminin-511 E8 (produced by Nippi, Inc.).
Using this iPS cell, culturing and differentiation induction were carried out in the same manner as in Example 1 and the percentage of the number of Corin-positive cells with respect to the total cell number was measured on the 12th day (Day 12) using an anti-Corin antibody.

[1] = tested on: model rat of Parkinson's disease (6-OHDA uni-laterally administered rat); test: Cell transplantation into striatum of Parkinson's disease model rat, graft staining with TH and HuNu after 4 weeks; assay type: in vivo; settings: for TH-ratio with respect to HuNu-positive cells as 100%: graft of cells cultured in the presence of SAG (300 nM)
Description: In this case, the medium was replaced in half every 3 days.
A plurality of cell aggregates containing 4×10^5 cells obtained as described above were suspended in 2 μL of physiological saline, and injected into the striatum of a model rat of Parkinson's disease (6-OHDA uni-laterally administered rat) using a 22 gauge injection needle, and the appearance of the graft after 4 weeks was observed (FIG. 5).

Structure (SMILES): c1ccc2c(-c3cnn4cc(-c5ccc(N6CCNCC6)cc5)cnc34)ccnc2c1 [LDN193189]
- Corin-Positive Rate (%) (QHJ-I01 human iPS cell; LDN193189 (100 nM) alone): 12.6%
- Corin-positive ratio as compared with the control (QHJ-I01 human iPS cell): no effect

Structure (SMILES): CNC1CCC(N(Cc2cccc(-c3ccncc3)c2)C(=O)c2sc3ccccc3c2Cl)CC1 (stereo not shown) [SAG]
- percentage of Corin-positive cells (LPF 11 human iPS cell): increased
- percentage of Corin-positive cells (QHJ-I01 human iPS cell; SAG 300 nM for 24 hours before differentiation induction vs absence of SAG, FIG. 2): increased
- Corin-Positive Rate (%) (QHJ-I01 human iPS cell; SAG (10 nM) added to medium for maintaining undifferentiated state before differentiation induction): 22.7%
- Corin-Positive Rate (%) (QHJ-I01 human iPS cell; SAG (300 nM)): 32.1%
- Corin-positive ratio as compared with the control (QHJ-I01 human iPS cell): improves depending on the concentration of SAG added
- ratio of the number of TH-positive cells to the number of HuNu-positive cells, SAG-treated cell graft vs non-treated cell graft ([1]; 4 weeks after grafting): no difference
- TH-ratio with respect to HuNu-positive cells as 100% ([1]; 4 weeks): 6.1%
- TH-ratio with respect to HuNu-positive cells as 100% ([1]; 4 weeks after grafting, average): 9.24%
- TH-ratio with respect to HuNu-positive cells as 100% ([1]; 4 weeks, individual (2)): 12.37%

Structure (SMILES): Cc1cccc(-c2nn(C(=S)Nc3ccccc3)cc2-c2ccnc3ccccc23)n1 [A83-01, 3-(6-methyl-2-pyridinyl)-N-phenyl-4-(4-quinolinyl)-1H-pyrazole-1-carbothioamide]
- Corin-Positive Rate (%) (QHJ-I01 human iPS cell; A83-01 (500 nM) alone): 12.4%
- Corin-positive ratio as compared with the control (QHJ-I01 human iPS cell): no effect
